Results from patent publication US11166924B2, “N-methyl-d-aspartate receptor allosteric modulators and methods for their use” (Qingdao Primedicine Pharmaceutical Company, Ltd., priority 2016, dated 2021).

Experiments:
GluN1/GluN2A^A108G = target: T1, GluN1/GluN2A^A108G (Rattus norvegicus, UniProt P35439+Q00959, A108G); experiment: Patch clamp in HEK293 cells expressing mutant GluN1/GluN2A A108G; type: cell-based
T1 construct: expressed in transfected cells; host or cells: HEK293
Experimental: Whole cell patch-clamp recordings were performed under voltage-clamp mode using an Axopatch 200B or 1D patch-clamp amplifier (Molecular Devices). Whole-cell currents were recorded at a holding potential of −60 mV unless indicated elsewhere, and signals were filtered at 2 kHz, digitized at 10 kHz (Digidata 1322A). Recording pipettes (3-5 MΩ) were filled with intracellular solution containing (mM): CsCl 140, HEPES 10, Mg-ATP 4, QX-314 5, pH 7.20; osmolarity, 290-295 mOsm. BAPTA (10 mM) was added in the intracellular solution (unless otherwise specified). The coverslips were continuously superfused with extracellular solution containing (mM): NaCl 140, KCl 5.4, HEPES 10, CaCl2 1.3, glucose 20, pH 7.4; osmolarity, 305-315 mOsm. NMDA-induced currents were applied by NMDA through perfusion fast-step (Warner Instruments). With perfusion fast-step system, NMDA application was achieved by using a two-square barrel glass tubing and depending on the age of the cultured neurons, CNQX (10 μM), TTX (0.5 μM) or BIC (10 μM) were added in the extracellular solution to minimize the activation of ionotropic glutamate receptors and voltage-gated sodium channels, respectively. All experiments were performed at room temperature. Recordings from at least six HEK293 cells/neurons were performed for all active compounds. […]

[1] = test system: rat model of middle cerebral artery occlusion (MCAo); experiment: Cerebral ischemia (MCAo) infarct volume; type: in vivo
Excerpt: Adult male Sprague Dawley rats weighting ˜200 g were anesthetized, and the middle cerebral artery (MCA) was exposed by making a craniotomy window (2 mm in diameter) 1 mm rostral to the anterior junction of the zygoma and the squamosal bone. We used the suture ligation method to achieve three-vessel occlusion. The exposed MCA was ligated with a square knot using a 10-0 nylon suture. Next, the bilateral common carotid arteries (CCAs) were clamped with nontraumatic arterial clips. Successful surgery was confirmed by a marked drop in regional cerebral blood flow, monitored by a laser Doppler flowmeter (PF-5010, Periflux system; Perimed AB). After 90 min ischemia, the suture and clips were removed to allow instant reperfusion. Experimental rats were subdivided into groups to receive different doses of Npam43 or saline/vehicle (as indicated) via femoral vein injection. 2,3,5-Triphenyltetrazolium chloride (TTC) was used to evaluate infarct size in stained brain sections. […]
The rats were anesthetized, with body temperature maintained at 37.0±0.5° C. with a heating pad during imaging. […] The non-infarct areas were drawn manually from slice to slice and the volumes were measured with Voxtool analysis software (General Electric). The infarct size was quantified by subtracting the non-infarct volume of the ischemic hemisphere from the total volume of the contralateral hemisphere. […]

[2] = target: T2, GluN2B NMDARs in hippocampal slices (Mus musculus, UniProt P35438+Q01097); experiment: Slice recordings, GluN2B component of synaptic NMDAR currents; settings: FIG. 18
T2 construct: from tissue; host or cells: mouse hippocampal slices, CA1 pyramidal neurons
T2 sequence (Q01097 27-1482, other chains not shown): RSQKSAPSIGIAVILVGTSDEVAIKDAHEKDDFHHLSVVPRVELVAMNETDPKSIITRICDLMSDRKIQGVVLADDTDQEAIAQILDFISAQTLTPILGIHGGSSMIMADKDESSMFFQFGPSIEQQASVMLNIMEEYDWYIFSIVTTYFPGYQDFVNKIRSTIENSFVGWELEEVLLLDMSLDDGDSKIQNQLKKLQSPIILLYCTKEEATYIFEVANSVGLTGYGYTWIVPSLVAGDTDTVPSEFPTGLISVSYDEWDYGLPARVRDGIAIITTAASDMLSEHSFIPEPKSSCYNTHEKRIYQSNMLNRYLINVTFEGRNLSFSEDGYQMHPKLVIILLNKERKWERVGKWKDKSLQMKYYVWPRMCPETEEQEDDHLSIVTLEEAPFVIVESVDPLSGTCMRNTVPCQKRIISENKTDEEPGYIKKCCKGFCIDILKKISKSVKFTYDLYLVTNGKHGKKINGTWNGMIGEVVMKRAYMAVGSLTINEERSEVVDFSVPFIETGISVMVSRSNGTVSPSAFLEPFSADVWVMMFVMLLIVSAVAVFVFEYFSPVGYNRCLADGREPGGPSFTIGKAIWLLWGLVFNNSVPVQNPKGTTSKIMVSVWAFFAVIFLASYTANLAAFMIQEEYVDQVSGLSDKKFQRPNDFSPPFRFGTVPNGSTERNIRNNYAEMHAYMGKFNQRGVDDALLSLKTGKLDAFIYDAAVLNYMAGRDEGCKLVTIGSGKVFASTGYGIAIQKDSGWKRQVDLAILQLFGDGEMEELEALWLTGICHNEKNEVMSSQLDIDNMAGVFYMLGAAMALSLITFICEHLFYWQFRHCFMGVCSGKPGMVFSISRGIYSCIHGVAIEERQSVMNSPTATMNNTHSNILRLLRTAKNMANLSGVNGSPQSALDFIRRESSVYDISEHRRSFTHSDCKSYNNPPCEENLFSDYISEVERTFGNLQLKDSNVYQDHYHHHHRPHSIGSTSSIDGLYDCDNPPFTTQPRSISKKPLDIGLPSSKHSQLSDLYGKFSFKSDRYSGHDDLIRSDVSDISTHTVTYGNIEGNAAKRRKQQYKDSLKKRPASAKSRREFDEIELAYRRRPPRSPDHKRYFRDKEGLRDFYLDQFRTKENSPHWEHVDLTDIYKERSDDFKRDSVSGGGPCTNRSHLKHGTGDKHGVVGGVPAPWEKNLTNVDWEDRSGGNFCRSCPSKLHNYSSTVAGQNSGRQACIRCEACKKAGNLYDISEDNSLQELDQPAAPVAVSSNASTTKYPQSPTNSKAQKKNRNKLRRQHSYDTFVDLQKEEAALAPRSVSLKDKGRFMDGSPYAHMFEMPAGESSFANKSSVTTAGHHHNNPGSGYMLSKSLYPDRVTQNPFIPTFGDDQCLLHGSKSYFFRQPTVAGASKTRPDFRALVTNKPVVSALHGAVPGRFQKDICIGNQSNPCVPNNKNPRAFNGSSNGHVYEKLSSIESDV
Excerpt: 6-8 week old C57/Bl6 mice or rats underwent cervical dislocation followed by decapitation. The brain was immediately transferred to an ice cold NMDG-based cutting solution consisting of: (in mM): 120 NMDG, 2.5 KCl, 1.2 NaH2PO4, 25 NaHCO3, 1.0 CaCl2, 7.0 MgCl2, 2.4 Na-pyruvate, 1.3 Na-ascorbate, 20 D-glucose with pH adjusted to 7.35 using HCl acid (unless stated, all chemicals and drugs were purchased from Sigma or BioShop, Canada). The hippocampus was dissected out and transverse hippocampal slices (400 μm) were obtained using a manual tissue chopper (Stoelting, Wood Dale, Ill., USA). Slices recovered in a heated (30° C.) incubating chamber for 1 hr which contained ACSF composed of (in mM): 124 NaCl, 3 KCl, 1.25 NaH2PO4, 1 MgSO47H2O, 2 CaCl2), 26 NaHCO3 and 15 D-glucose which was bubbled continuously with carbogen (95% O2/5% CO2) (pH to 7.3). After 30 additional minutes at room temperature, slices were transferred to a submerged recording chamber and were perfused continuously with carbogenated ACSF (2-3 ml/min). Whole-cell recordings of CA1 pyramidal neurons were performed using the “blind” method with a MultiClamp 700B amplifier. EPSCs (excitatory post synaptic currents) were elicited by stimulating the SC pathway. For isolation of NMDAR currents, cells were voltage clamped at +40 mV. […]

T1 sequence (Q00959 23-1464 A108G, other chains not shown): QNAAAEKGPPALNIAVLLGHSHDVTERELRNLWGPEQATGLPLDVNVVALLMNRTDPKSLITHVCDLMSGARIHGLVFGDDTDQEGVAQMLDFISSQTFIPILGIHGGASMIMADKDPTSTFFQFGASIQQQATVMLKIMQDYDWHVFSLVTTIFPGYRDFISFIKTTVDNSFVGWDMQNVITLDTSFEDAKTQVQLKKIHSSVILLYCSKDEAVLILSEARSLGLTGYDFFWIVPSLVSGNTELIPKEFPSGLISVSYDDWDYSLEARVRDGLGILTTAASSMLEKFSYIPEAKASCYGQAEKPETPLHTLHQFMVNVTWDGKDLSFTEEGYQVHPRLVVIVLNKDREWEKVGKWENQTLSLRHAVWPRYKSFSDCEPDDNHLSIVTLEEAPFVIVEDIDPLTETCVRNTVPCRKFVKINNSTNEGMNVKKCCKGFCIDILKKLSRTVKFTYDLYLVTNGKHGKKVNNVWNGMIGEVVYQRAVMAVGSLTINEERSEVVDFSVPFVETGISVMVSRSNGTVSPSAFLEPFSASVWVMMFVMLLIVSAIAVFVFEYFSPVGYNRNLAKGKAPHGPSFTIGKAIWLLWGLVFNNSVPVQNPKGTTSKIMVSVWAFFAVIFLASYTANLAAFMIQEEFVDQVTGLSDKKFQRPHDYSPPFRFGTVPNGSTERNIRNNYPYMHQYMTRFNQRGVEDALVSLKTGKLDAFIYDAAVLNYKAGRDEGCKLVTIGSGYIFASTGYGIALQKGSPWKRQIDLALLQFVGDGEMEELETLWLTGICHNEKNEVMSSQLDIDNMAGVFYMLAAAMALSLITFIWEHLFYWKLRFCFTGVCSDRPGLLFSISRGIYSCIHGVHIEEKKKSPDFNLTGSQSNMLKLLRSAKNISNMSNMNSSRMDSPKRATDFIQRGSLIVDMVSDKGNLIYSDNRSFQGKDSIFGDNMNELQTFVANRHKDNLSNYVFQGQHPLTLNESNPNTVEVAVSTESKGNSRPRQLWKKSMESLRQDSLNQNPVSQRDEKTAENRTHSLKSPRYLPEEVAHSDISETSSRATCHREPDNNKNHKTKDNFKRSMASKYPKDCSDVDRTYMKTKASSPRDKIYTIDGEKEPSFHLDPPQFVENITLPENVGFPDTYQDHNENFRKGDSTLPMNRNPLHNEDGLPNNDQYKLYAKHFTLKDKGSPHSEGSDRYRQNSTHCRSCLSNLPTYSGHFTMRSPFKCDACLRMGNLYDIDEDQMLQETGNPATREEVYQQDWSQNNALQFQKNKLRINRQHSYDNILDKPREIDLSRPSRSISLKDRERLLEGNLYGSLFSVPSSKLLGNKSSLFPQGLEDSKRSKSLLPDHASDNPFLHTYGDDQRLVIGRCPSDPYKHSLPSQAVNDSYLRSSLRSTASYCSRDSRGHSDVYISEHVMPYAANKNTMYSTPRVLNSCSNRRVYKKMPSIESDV

SMILES: CCOc1cc(Cl)c(Cl)c(/C=N/NC(=O)c2ccccc2Br)c1O [Npam43, (E)-2-bromo-N′-(2,3-dichloro-5-ethoxy-6-hydroxybenzylidene)benzohydrazide]
- Relative potentiation (GluN1/GluN2A^A108G; Table 3): 210 ± 9.0%
- Net Difference potentiation (GluN1/GluN2A^A108G; normalized to wild-type): +0.48 ± 0.01%
- Infarct size, long term evaluation point ([1]; 7 days, MRI scanning, FIG. 25): reduces infarct size
- Infarct volume ([1]; MCAo rats, compared to vehicle/saline, 24 h post ischemia (FIG. 24)): reduces infarct volume
- Effect on GluN2B NMDARs [2]: no effects on the GluN2B NMDARs
